Earlier results in patent publication US7611733B2, “Nanoparticle formulations of platinum compounds” (priority 2004, dated 2009).
Counter-ions that a name gives are not always drawn.

Tested on: variety of tumor cell lines

For `[NH2][Pt+]([NH2])([Cl])[NH]CCCCCC[NH2+]CC[NH2+]CCCCCC[NH][Pt+]([NH2])([NH2])[Cl]` [Formula II, bis{trans(diammine)(chloro)platinum(II)}μ(1,16-diamino-7,10-diazahexadecane-N1,N16) dinitrate salt. 2HNO3], the antitumor activity is given as “outstanding antitumor activity”.
